Assay results taken from patent US8703805B2 (Exelixis Patent Company LLC, priority 2005, dated 2014).

tested on: LXRα and/or LXRβ; experiment: LXR/LXRE co-transfection assay (luciferase reporter, CV-1 cells); assay type: cell-based, human; details: IC50 or EC50 for LXR (LXRα and/or LXRβ, not distinguished), tested as described in Example 109, CV-1 cells
Outline: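 Transient co-transfection of CV-1 cells with full-length human LXRα or LXRβ plus RXRα expression plasmids and an LXREx1-Tk-luciferase reporter; compounds (10 μM screen, ≤1% DMSO) incubated 20 h at 37 °C. Luminescence read after lysis; EC50/IC50 from 8-point half-log curves, efficacy relative to a high control or DMSO.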

First: CC(C)(O)c1cc(-c2ccc(-c3cccc(S(N)(=O)=O)c3)cc2)n(-c2ccccc2Cl)n1 [Example 1300, 4′-[1-(2-chlorophenyl)-3-(1-hydroxy-1-methylethyl)-1H-pyrazol-5-yl]biphenyl-3-sulfonamide]
Second: CC(C)(O)c1cccc(-c2ccc(-c3cc(C(F)(F)F)nn3-c3ccccc3Cl)cc2)c1 [Example 1221, 2-{4′-[1-(2-chlorophenyl)-3-(trifluoromethyl)-1H-pyrazol-5-yl]biphenyl-3-yl}propan-2-ol]
The EC50 of the first is higher: 1000 to 10000 nM for the first, under 1000 nM for the second.

Cc1cc(-c2cccc(S(C)(=O)=O)c2)cnc1-n1nc(C(C)(C)O)c(Cl)c1-c1ccccc1Cl [Example 145, 2-(4-chloro-5-(2-chlorophenyl)-1-(3-methyl-5-(3-(methylsulfonyl)phenyl)pyridin-2-yl)-1H-pyrazol-3-yl)propan-2-ol] and CC(C)(O)c1nn(-c2ccc(-c3cccc(S(C)(=O)=O)c3)cc2Cl)c(-c2cccc(F)c2F)c1Cl [Example 1427, 2-(4-chloro-1-(3-chloro-3′-(methylsulfonyl)biphenyl-4-yl)-5-(2,3-difluorophenyl)-1H-pyrazol-3-yl)propan-2-ol] cannot be ordered by EC50: under 1000 nM for the first, under 1000 nM for the second.

O=C(NCCN1CCOCC1)c1ccc(-c2cc(C(F)(F)F)nn2-c2ccccc2Cl)cc1 [Example 970, 4-[1-(2-chlorophenyl)-3-(trifluoromethyl)-1H-pyrazol-5-yl]-N-(2-morpholin-4-ylethyl)benzamide] and O=C(O)CNC(=O)c1ccc(-c2cc(C(F)(F)F)nn2-c2ccccc2Cl)cc1 [Example 1362, N-({4-[1-(2-chlorophenyl)-3-(trifluoromethyl)-1H-pyrazol-5-yl]phenyl}carbonyl)glycine] fall in the same range of EC50: 1000 to 10000 nM for the first, 1000 to 10000 nM for the second.

CC(C)(O)c1cc(-c2ccc(-c3cccc(S(C)(=O)=O)c3)s2)n(-c2cnccc2C(F)(F)F)n1 [Example 1351, 2-(5-{5-[3-(methylsulfonyl)phenyl]-2-thienyl}-1-[4-(trifluoromethyl)pyridin-3-yl]-1H-pyrazol-3-yl)propan-2-ol] and CC(C)(O)c1cc(-c2ccc(-c3cccc(S(C)(=O)=O)c3)s2)n(-c2cc(C(F)(F)F)ccc2Cl)n1 [Example 1347, 2-(1-[2-chloro-5-(trifluoromethyl)phenyl]-5-{5-[3-(methylsulfonyl)phenyl]-2-thienyl}-1H-pyrazol-3-yl)propan-2-ol] fall in the same range of EC50: 1000 to 10000 nM for the first, 1000 to 10000 nM for the second.

CC(C)(O)c1nn(-c2ccc(-c3cccc(S(C)(=O)=O)c3)cc2Cl)c(-c2c(Cl)cccc2Cl)c1Cl [Example 1414, 2-(4-chloro-1-(3-chloro-3′-(methylsulfonyl)biphenyl-4-yl)-5-(2,6-dichlorophenyl)-1H-pyrazol-3-yl)propan-2-ol] and CC(C)(O)c1cc(-c2c(F)cccc2Cl)n(-c2ccc(-c3cccc(S(C)(=O)=O)c3)cc2Cl)n1 [Example 130, 2-(1-(3-chloro-3′-(methylsulfonyl)biphenyl-4-yl)-5-(2-chloro-6-fluorophenyl)-1H-pyrazol-3-yl)propan-2-ol] cannot be ordered by EC50: under 1000 nM for the first, under 1000 nM for the second.

CC(C)(O)c1cc(-c2ccc(-c3cccc4[nH]ccc34)cc2)n(-c2ccccc2Cl)n1 [Example 1286, 2-{1-(2-chlorophenyl)-5-[4-(1H-indol-4-yl)phenyl]-1H-pyrazol-3-yl}propan-2-ol] and CC(C)(O)c1cc(-c2ccc(-c3ccc(F)c(C(F)(F)F)c3)cc2)n(-c2ccccc2Cl)n1 [Example 1299, 2-{1-(2-chlorophenyl)-5-[4′-fluoro-3′-(trifluoromethyl)biphenyl-4-yl]-1H-pyrazol-3-yl}propan-2-ol] fall in the same range of EC50: 1000 to 10000 nM for the first, 1000 to 10000 nM for the second.

CC(C)(O)c1cc(-c2ccc(-c3cc(C(F)(F)F)nn3-c3ccccc3Cl)s2)cc(S(C)(=O)=O)c1 [Example 1318, 2-[3-{5-[1-(2-chlorophenyl)-3-(trifluoromethyl)-1H-pyrazol-5-yl]-2-thienyl}-5-(methylsulfonyl)phenyl]propan-2-ol] and CS(=O)(=O)c1cccc(-c2ccc(-c3cc(C(O)(C(F)(F)F)C(F)(F)F)nn3-c3ccccc3Cl)s2)c1 [Example 1164, 2-[1-(2-chlorophenyl)-5-{5-[3-(methylsulfonyl)phenyl]-2-thienyl}-1H-pyrazol-3-yl]-1,1,1,3,3,3-hexafluoropropan-2-ol] cannot be ordered by EC50: under 1000 nM for the first, under 1000 nM for the second.

First: CC(C)(O)c1cc(-c2cc(-c3cccc(S(C)(=O)=O)c3)co2)n(-c2ccccc2Cl)n1 [Example 1235, 2-[1-(2-chlorophenyl)-5-{4-[3-(methylsulfonyl)phenyl]furan-2-yl}-1H-pyrazol-3-yl]propan-2-ol]
Second: Cc1cc(-c2cccc(S(C)(=O)=O)c2)ccc1-n1nc(C(C)(C)O)cc1-c1cccc(Cl)c1Cl [Example 136, 2-(5-(2,3-dichlorophenyl)-1-(3-methyl-3′-(methylsulfonyl)biphenyl-4-yl)1H-pyrazol-3-yl)propan-2-ol]
The EC50 of the first is higher: 1000 to 10000 nM for the first, under 1000 nM for the second. The second is the more potent here.

CC(C)(O)c1cc(-c2ccc(-c3cccc(S(C)(=O)=O)c3)s2)n(-c2ncccc2F)n1 [Example 1272, 2-[1-(3-fluoropyridin-2-yl)-5-{5-[3-(methylsulfonyl)phenyl]-2-thienyl}-1H-pyrazol-3-yl]propan-2-ol] and CC(C)(O)c1cc(-c2ccc(-c3cccc(S(C)(=O)=O)c3)s2)n(-c2ccccn2)n1 [Example 1264, 2-(5-{5-[3-(methylsulfonyl)phenyl]-2-thienyl}-1-pyridin-2-yl-1H-pyrazol-3-yl)propan-2-ol] fall in the same range of EC50: 1000 to 10000 nM for the first, 1000 to 10000 nM for the second.

CC(C)(O)c1cc(-c2ccc(-c3cccc(S(C)(=O)=O)c3)cc2)n(Cc2cccc(Cl)c2Cl)n1 [Example 1400, 2-(1-(2,3-dichlorobenzyl)-5-(3′-(methylsulfonyl)biphenyl-4-yl)-1H-pyrazol-3-yl)propan-2-ol] and CC(C)(O)c1cc(-c2c(F)cccc2Cl)n(-c2ccc(-c3cccc(S(C)(=O)=O)c3)cc2F)n1 [Example 120, 2-(5-(2-chloro-6-fluorophenyl)-1-(3-fluoro-3′-(methylsulfonyl)biphenyl-4-yl)-1H-pyrazol-3-yl)propan-2-ol] cannot be ordered by EC50: under 1000 nM for the first, under 1000 nM for the second.

Compared with CCN1CCC(CNC(=O)c2cc(-c3ccc(-c4cccc(S(C)(=O)=O)c4)s3)n(-c3ccccc3Cl)n2)C1 (stereo not drawn) [Example 739, 1-(2-chlorophenyl)-N-[(1-ethylpyrrolidin-3-yl)methyl]-5-{5-[3-(methylsulfonyl)phenyl}-2-thienyl}-1H-pyrazole-3-carboxamide], C=C(C)c1cc(-c2ccc(-c3cccc(S(C)(=O)=O)c3)s2)n(-c2ccccc2Cl)n1 [Example 123, 1-(2-chlorophenyl)-5-(5-(3-(methylsulfonyl)phenyl)thiophen-2-yl)-3-(prop-1-en-2-yl)-1H-pyrazole] is lower in EC50: 1000 to 10000 nM for the first, under 1000 nM for the second. The second is the more potent here.

Cc1cccc(Cl)c1-n1nc(C(C)(C)O)cc1-c1ccc(-c2cccc(S(C)(=O)=O)c2)s1 [Example 1335, 2-[1-(2-chloro-6-methylphenyl)-5-{5-[3-(methylsulfonyl)phenyl]-2-thienyl}-1H-pyrazol-3-yl]propan-2-ol] and CC(C)(O)c1cc(-c2ccc(-c3cccc(S(C)(=O)=O)c3)s2)n(-c2cc(Cl)ccc2F)n1 [Example 1336, 2-[1-(5-chloro-2-fluorophenyl)-5-{5-[3-(methylsulfonyl)phenyl]-2-thienyl}-1H-pyrazol-3-yl]propan-2-ol] cannot be ordered by EC50: under 1000 nM for the first, under 1000 nM for the second.

CN(CC(=O)O)C(=O)c1cc(-c2ccc(-c3cccc(S(C)(=O)=O)c3)s2)n(-c2ccccc2Cl)n1 [Example 1154, N-{[1-(2-chlorophenyl)-5-{5-[3-(methylsulfonyl)phenyl]-2-thienyl}-1H-pyrazol-3-yl]carbonyl}-N-methylglycine] and CS(=O)(=O)c1cccc(-c2ccc(-c3cc(C(=O)NCCc4ccccn4)nn3-c3ccccc3Cl)s2)c1 [Example 1232, 1-(2-chlorophenyl)-5-{5-[3-(methylsulfonyl)phenyl]-2-thienyl}-N-(2-pyridin-2-ylethyl)-1H-pyrazole-3-carboxamide] fall in the same range of EC50: 1000 to 10000 nM for the first, 1000 to 10000 nM for the second.

CC(C)(O)c1cc(-c2ccc(-c3cccc(S(C)(=O)=O)c3)s2)n(-c2cc(Cl)ccc2Oc2ccccc2)n1 [Example 1212, 2-(1-[5-chloro-2-(phenyloxy)phenyl]-5-{5-[3-(methylsulfonyl)phenyl]-2-thienyl}-1H-pyrazol-3-yl)propan-2-ol] and CC(C)c1ccccc1-n1nc(C(C)(C)O)cc1-c1ccc(-c2cccc(S(C)(=O)=O)c2)s1 [Example 1345, 2-(1-[2-(1-methylethyl)phenyl]-5-{5-[3-(methylsulfonyl)phenyl]-2-thienyl}-1H-pyrazol-3-yl)propan-2-ol] cannot be ordered by EC50: under 1000 nM for the first, under 1000 nM for the second.

CC(=O)c1cc(-c2ccc(-c3cccc(S(=O)(=O)C(C)C)c3)s2)n(-c2ncccc2C(F)(F)F)n1 [Example 1183, 1-{5-(5-{3-[(1-methylethyl)sulfonyl)phenyl}-2-thienyl)-1-[3-(trifluoromethyl)pyridin-2-yl]-1H-pyrazol-3-yl}ethanone] and CN(Cc1cc(-c2ccc(-c3cccc(S(C)(=O)=O)c3)s2)n(-c2ccccc2Cl)n1)Cc1ncco1 [Example 1147, 1-[1-(2-chlorophenyl)-5-{5-[3-(methylsulfonyl)phenyl]-2-thienyl}-1H-pyrazol-3-yl]-N-methyl-N-(1,3-oxazol-2-ylmethyl)methanamine] cannot be ordered by EC50: under 1000 nM for the first, under 1000 nM for the second.

First: CN1CCC(N(C(=O)c2ccc(-c3cc(C(F)(F)F)nn3-c3ccccc3Cl)cc2)C2CC2)CC1 [Example 1029, 4-[1-(2-chlorophenyl)-3-(trifluoromethyl)-1H-pyrazol-5-yl]-N-cyclopropyl-N-(1-methylpiperidin-4-yl)benzamide]
Second: CC(C)(O)c1nn(-c2cccc(Cl)c2F)c(-c2ccc(-c3cccc(S(C)(=O)=O)c3)s2)c1Br [Example 1357, 2-[4-bromo-1-(3-chloro-2-fluorophenyl)-5-{5-[3-(methylsulfonyl)phenyl]-2-thienyl}-1H-pyrazol-3-yl]propan-2-ol]
The EC50 of the first is higher: 1000 to 10000 nM for the first, under 1000 nM for the second.

CC(C)(O)c1nn(-c2ccccc2Br)c(-c2ccc(-c3cccc(S(C)(=O)=O)c3)s2)c1Br [Example 1360, 2-[4-bromo-1-(2-bromophenyl)-5-{5-[3-(methylsulfonyl)phenyl]-2-thienyl}-1H-pyrazol-3-yl]propan-2-ol] gave an EC50 of under 1000 nM.
